Experimental findings from paper PMC5299038 (Structure (London, England : 1993), 2017) are described below.

For test [1], the system named is TpCADE. Conditions: hydrolysis of the alpha-1,3-linkages.
Test [2] has as its target TpCADE (Trueperella pyogenes, UniProt Z9JAQ5MWQ7). The experiment in a line: coupled glucose oxidase assay. The format is biochemical. Conditions: hydrolysis of the alpha-1,3-linkages.

Consider cycloalternan, for which the Km (usually the concentration of substrate that gives half-maximal velocity) amounted to 9.3 ± 1.5 mM with TpCADE [1] and 2.1 ± 0.2 mM at TpCADE [2].
